Measurements taken from patent US20260174857A1, “METHODS OF ADJUVANT TREATMENT FOR ALLERGY IMMUNOTHERAPY” (Revelation Biosciences, Inc., priority 2022, published 2026).

Tests used:
TLR4 [1] = biological target: T1, TLR4 (Rattus norvegicus, UniProt Q9QX05); experiment: IL-6 and IL-10 cytokine response after IV administration in rats; format: in vivo
T1 construct: from tissue; host or cells: whole animal (rat), in vivo
T1 sequence (Q9QX05 26-835): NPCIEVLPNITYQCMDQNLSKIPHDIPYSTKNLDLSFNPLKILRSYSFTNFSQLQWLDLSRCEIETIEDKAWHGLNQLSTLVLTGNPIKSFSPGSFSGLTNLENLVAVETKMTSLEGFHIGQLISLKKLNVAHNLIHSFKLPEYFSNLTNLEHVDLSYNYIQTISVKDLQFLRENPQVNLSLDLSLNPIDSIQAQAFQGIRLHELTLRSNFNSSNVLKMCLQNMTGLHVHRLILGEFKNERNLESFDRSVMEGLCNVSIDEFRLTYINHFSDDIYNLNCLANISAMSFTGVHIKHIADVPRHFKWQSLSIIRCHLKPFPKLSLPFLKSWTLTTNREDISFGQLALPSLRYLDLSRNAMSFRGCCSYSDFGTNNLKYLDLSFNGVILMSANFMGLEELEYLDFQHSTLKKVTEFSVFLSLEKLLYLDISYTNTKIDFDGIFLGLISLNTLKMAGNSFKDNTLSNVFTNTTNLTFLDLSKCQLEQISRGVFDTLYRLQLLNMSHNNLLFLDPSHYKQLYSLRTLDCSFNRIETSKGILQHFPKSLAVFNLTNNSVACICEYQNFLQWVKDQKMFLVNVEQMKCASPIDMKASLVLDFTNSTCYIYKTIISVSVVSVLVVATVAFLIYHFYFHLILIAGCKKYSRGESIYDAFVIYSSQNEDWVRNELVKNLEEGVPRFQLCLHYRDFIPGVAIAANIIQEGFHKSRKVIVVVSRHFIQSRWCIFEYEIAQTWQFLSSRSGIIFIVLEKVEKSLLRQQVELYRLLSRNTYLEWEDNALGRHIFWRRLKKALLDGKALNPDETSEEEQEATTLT
Excerpt: (§1) IP-10 is an important cytokine associated with stimulation of the TRIF pathway. Evidence of IL-6 and IL-10 and IP-10 upregulation is confirmation that PHAD preparations as noted in this application are capable of TLR4 stimulation, with a bias toward stimulating the TRIF pathway, which is further confirmation of the amelioration or reduction of activity mediated through the MyD88 signaling pathway, which supports the amelioration of pro-inflammatory cytokine production.

TLR4 [2] = biological target: T2, TLR4 (Mus musculus, UniProt Q9JHF9+Q9QUK6); experiment: in vitro cell based activity assay, IP-10 upregulation in mouse macrophages (J774 cell line)
T2 construct: endogenous in cells; host or cells: J774 mouse macrophage cell line
T2 sequence (Q9QUK6 26-835): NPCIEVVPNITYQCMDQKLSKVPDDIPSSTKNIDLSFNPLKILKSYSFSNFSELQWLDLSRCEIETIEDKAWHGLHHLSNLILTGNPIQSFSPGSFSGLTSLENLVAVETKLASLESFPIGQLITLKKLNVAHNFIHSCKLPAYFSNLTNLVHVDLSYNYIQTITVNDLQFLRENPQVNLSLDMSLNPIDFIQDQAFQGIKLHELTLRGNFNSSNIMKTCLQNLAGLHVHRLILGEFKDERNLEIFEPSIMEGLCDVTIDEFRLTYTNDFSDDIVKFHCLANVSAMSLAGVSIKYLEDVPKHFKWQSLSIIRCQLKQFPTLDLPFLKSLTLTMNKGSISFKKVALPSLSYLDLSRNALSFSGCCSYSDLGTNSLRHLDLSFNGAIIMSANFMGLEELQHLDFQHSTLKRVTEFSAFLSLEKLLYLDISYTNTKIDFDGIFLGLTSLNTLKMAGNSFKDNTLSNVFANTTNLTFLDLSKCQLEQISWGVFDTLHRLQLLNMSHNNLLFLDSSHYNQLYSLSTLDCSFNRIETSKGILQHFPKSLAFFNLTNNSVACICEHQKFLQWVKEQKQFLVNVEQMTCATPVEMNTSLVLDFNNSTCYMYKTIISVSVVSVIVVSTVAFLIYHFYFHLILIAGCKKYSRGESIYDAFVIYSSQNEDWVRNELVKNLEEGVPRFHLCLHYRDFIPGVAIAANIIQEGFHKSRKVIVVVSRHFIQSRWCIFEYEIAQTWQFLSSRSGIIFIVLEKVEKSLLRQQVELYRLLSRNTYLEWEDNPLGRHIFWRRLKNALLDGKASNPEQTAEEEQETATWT
T2 sequence (Q9JHF9 19-160): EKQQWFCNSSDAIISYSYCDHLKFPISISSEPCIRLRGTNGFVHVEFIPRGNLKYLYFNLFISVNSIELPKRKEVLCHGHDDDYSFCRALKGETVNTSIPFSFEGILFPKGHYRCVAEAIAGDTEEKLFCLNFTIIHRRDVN
Excerpt: Interferon-β is required for production of IP-10, therefore IP-10 is considered a surrogate marker for Type I interferon activity.
as §1

[3] = second dose at 24 hours, compared with first dose

## phosphorylated hexaacyl disaccharide [PHAD]
TLR4 [1]; [3]
  anti-inflammatory cytokines (e.g., IL-10) following a second dose: larger increase
  pro-inflammatory cytokines (e.g., IL-6) following a second dose: smaller increase
TLR4 [1]; two doses of PHAD, after first dose
  inflammatory and protective cytokines following a first dose: initial increase
TLR4 [2]
  upregulation of IP-10 as a result of TLR4 stimulation: IP-10 upregulation as a function of dose
